US20100063020A1, “ORAL PHARMACEUTICAL FORMULATIONS AND METHODS FOR PRODUCING AND USING SAME” (priority 2004, published 2010)
In brackets after ≈: the same amount, converted by molar mass. Several values for one entry are separate records, joined by “and”; a condition that tells them apart may be missing. Equal values may be shown once. Read-outs that look alike come from different tables or passages of the source.

Legend:
[1] = Solubility of 17-AAG in organic solvents suitable for oral administration; format: physicochemical
Description: In other embodiments, pharmaceutical acceptable co-solvents may be added to the phospholipid formulation to further enhance the solubility of the ansamycins. Many suitable co-solvents which are known in the art may be used. […] The resulted formulation can then be combined with any combinations of the general excipients: fillers, glidants, lubricants, disintegrants, binders, solubilizers to form the various oral compositions.

[2] = Solubility assay in simulated intestinal fluid (SIF); format: physicochemical; details: low melt form; simulated intestinal fluid per USP w/o pancreatin, 24 hours at 37° C.
Experimental: The solubility of an active ingredient may be assayed by its dissolution in a simulated intestinal fluid (SIF) (per USP w/o pancreatin). Conforma Therapeutics has developed a database of SIF solubility data using this assay for a structurally diverse set of compounds that have also been administered orally to mice.
The mixture was incubated with continuous shaking for a predetermined time and temperature, e.g., for 24 hours at 37° C. […] The solubility of the active ingredient is calculated as the difference between the initial and final concentration of the active ingredient in the supernatant normalized to the total volume of SIF used.
The tube was then sonicated for 5 minutes then incubated for 24 hours at 37° C. with shaking. […] Conforma Therapeutics has developed a database of SIF solubility data using this assay for a structurally diverse set of compounds that have also been administered orally to mice.

[3] = test system: Caco-2 cell monolayer; test: in vitro; format: in vitro ADME
Description: The permeability of the pharmaceutical active ingredient across the gastrointestinal membrane may be estimated from it permeability across a Caco-2 cell monolayer using standard techniques (e.g. Chong S et al. Pharmaceutical Research 1997 14(12):1835-1837). The reference is hereby expressly incorporated by reference.
Propranolol was included in each assay as a high permeability control compound.

[4] = Effect of sodium lauryl sulfate on aqueous solubility of 17-AAG; format: physicochemical; details: pH 6.0, sodium lauryl sulfate
Description: Formulations of the invention may contain as much as 50% SLS.

[5] = Oral bioavailability of prototype 17-AAG solid dosage form (capsule) in female rats; format: in vivo, Sprague-Dawley rats; details: rat; for 17-AAG AUC(0-6)^b: oral capsule (17-AAG 33%, Neusilin 64%, SLS 3%), AUC estimated from 0 to 8 hrs; for 17-AAG Cmax / 17-AG Cmax / Apparent Absolute Bioavailability: oral capsule; for 17-AG Cmax: metabolite 17-AG; for Apparent Absolute Bioavailability: vs intravenous 10 mg/kg of earlier study
Experimental: See, Example 18. […] The average dose administered was 14.3 mg/kg.
The average dose administered was 14.3 mg/kg. Blood samples (n=11) were collected via the jugular vein catheter prior to dosing and up to 8 hrs post dosing. The blood was allowed to clot at room temperature for approximately 20 minutes and then placed on ice until centrifugation at 10,000×G for 10 minutes. Serum was collected into polypropylene tubes and frozen at −80° C. until analysis.
% F=[(Oral AUC(0-6h)×I.V. Dose)/(I.V. AUC(0-6h)×Oral Dose)]*100

[6] = Mouse serum pharmacokinetics of low melt 17-AAG in phospholipids; format: in vivo; details: Balb/C mice; for 17-AG AUCobs / 17-AG Cmax: metabolite 17-AG
Experimental: Blood was collected at predetermined intervals and the serum was isolated.
(§1) Six to 8 week old Balb/C mice were obtained from Harlan Sprague Dawley (Indianapolis, Ind.). The mice were maintained in sterilized filter topped cages or ventilated caging in a room with a 12 h light/12 h dark photoperiod at temperature of 21-23° C. and a relative humidity of 50±5%. Irradiated pelleted food (Harlan Teklad #7912) and autoclaved deionized water were provided ad libitum. Experiments were carried out under institutional guidelines for the proper and humane use of animals in research established by the Institute for Laboratory Animal Research (ILAR).
Drug solutions were prepared and the concentrations were adjusted so that mice received a dose of 2-15 ml/kg administered intravenously (I.V.) as a bolus, orally, or intra-peritoneally (I.P.). […] In I.V. studies blood was sampled at 1, 5, 15, 30, 90 and 120 min. In oral and I.P. studies blood was sampled at 5, 15, 30, 90, 180 minutes and in some cases up to 240 minutes. Blood was collected in capillary tubes, transferred to microcentrifuge tubes, allowed to clot and centrifuged at 14,000 g for 10 minutes at 4° C. to obtain serum.

[7] = Mouse serum pharmacokinetics of low melt 17-AAG in PEG-Tween; format: in vivo; details: Balb/C mice, PO 40 mg/kg
Experimental: as §1, with “Dawley,” for “Dawley”, “12-h light/12-h” for “12 h light/12 h”
Drug solutions were prepared and the concentrations were adjusted so that mice received a dose of 2-15 ml/kg administered intravenously (I.V.) as a bolus, orally, or intra-peritoneally (I.P.). In I.V. studies blood was sampled at 1, 5, 15, 30, 90 and 120 min. In oral and I.P. studies blood was sampled at 5, 15, 30, 90, 180 minutes and in some cases up to 240 minutes. Blood was collected in capillary tubes, transferred to microcentrifuge tubes, allowed to clot and centrifuged at 14,000 g for 10 minutes at 4° C. to obtain serum.

[8] = aqueous reconstituted lyophilized preparation containing sucrose; cited from earlier work
[9] = adult patients, cited from earlier work; for Cmax: read-out: Plasma Cmax
[10] = 13.6-15.1 mg/kg, individual animal
[11] = PO 40 mg/kg, lipid complex, low melt form

Compound: C=CCNC1=C2C[C@@H](C)C[C@H](OC)[C@H](O)[C@@H](C)/C=C(\C)[C@H](OC(N)=O)[C@@H](OC)/C=C\C=C(/C)C(=O)NC(=CC1=O)C2=O [Compound 17-AAG, 17-allylamino-17-demethoxygeldanamycin]
- Solubility ([1]; solvent Glycerol): 1.1 mg/mL
- Solubility ([1]; solvent Glycofurol): 47.0 mg/mL
- Solubility ([1]; solvent Labrafil (Apricot Kernol Oil PEG-6 Esters)): 2.4 mg/mL
- Solubility ([1]; solvent Labrasol (PEG-8 Caprylic/Capric Glycerides)): 16.1 mg/mL
- Solubility ([1]; solvent Polyethylene glycol 400): 12.9 mg/mL
- Solubility ([1]; solvent Propylene Carbonate): 12.8 mg/mL
- Solubility ([1]; solvent Solutol HS15): 12.4 mg/mL
- Solubility ([1]; solvent Transcutol HP (Ethoxydiglycol)): 57.7 mg/mL
- Solubility ([1]; solvent Tween 80): 33.8 mg/mL
- solubility in SIF [2]: 0.088 mg/mL (≈ 150 µM)
- permeability across the Caco-2 monolayer [3]: 19 ×10⁻⁶ cm/s
- aqueous solubility versus SLS concentration [4]: increases linearly with increasing concentration of SLS
- 17-AAG AUC(0-6)^b [5, 10]: 32 µg·min/mL and 19 µg·min/mL and 34 µg·min/mL
- 17-AAG AUC(0-6)^b ([5]; mean dose 14.3 mg/kg, mean n=3): 28 µg·min/mL
- 17-AAG Cmax [5, 10]: 158 ng/mL and 117 ng/mL and 141 ng/mL
- 17-AG Cmax [5, 10]: 70 ng/mL and 61 ng/mL and 52 ng/mL
- Apparent Absolute Bioavailability [5, 10]: 15% and 8% and 16%
- 17-AAG Cmax ([5]; mean dose 14.3 mg/kg, mean n=3): 139 ± 21 ng/mL
- 17-AG Cmax ([5]; mean dose 14.3 mg/kg, mean n=3): 61 ± 9 ng/mL
- Apparent Absolute Bioavailability ([5]; mean dose 14.3 mg/kg, mean n=3): 13±4%
- 17-AAG AUCobs ([6]; IP 40 mg/kg, vehicle PMSE): 1596 µg·min/mL
- 17-AAG Cmax ([6]; IP 40 mg/kg, vehicle PMSE): 11800 ng/mL
- 17-AG AUCobs ([6]; IP 40 mg/kg, vehicle PMSE): 655 µg·min/mL
- 17-AG Cmax ([6]; IP 40 mg/kg, vehicle PMSE): 5800 ng/mL
- % F ([6]; IP 40 mg/kg, vehicle PMSE, relative to IV 40 mg/kg): 91%
- Total Absorption ([6]; IP 40 mg/kg, vehicle PMSE, 17-AAG and 17-AG relative to IV dose): 96%
- 17-AAG AUCobs ([6]; IV 40 mg/kg, vehicle PET): 1752 µg·min/mL
- 17-AAG Cmax ([6]; IV 40 mg/kg, vehicle PET): 54500 ng/mL
- 17-AG AUCobs ([6]; IV 40 mg/kg, vehicle PET): 595 µg·min/mL
- 17-AG Cmax ([6]; IV 40 mg/kg, vehicle PET): 6200 ng/mL
- 17-AAG AUCobs [6, 11]: 953 µg·min/mL
- 17-AAG Cmax [6, 11]: 7500 ng/mL
- 17-AG AUCobs ([6]; PO 40 mg/kg, lipid complex): 532 µg·min/mL
- 17-AG Cmax ([6]; PO 40 mg/kg, lipid complex): 4500 ng/mL
- 17-AAG AUCobs ([7]; low melt form): 433 µg·min/mL
- 17-AAG Cmax ([7]; low melt form): 5000 ng/mL
- 17-AG AUCobs ([7]; metabolite 17-AG): 163 µg·min/mL
- 17-AG Cmax ([7]; metabolite 17-AG): 2400 ng/mL
- % F ([7]; relative to IV 40 mg/kg): 25%
- oral bioavailability [8]: 24%
- maximum tolerated dose (MTD) ([9]; daily 1-hour infusion for 5 days every three weeks): 40 mg/m^2
- clearance ([9]; mean±SD): 41.0 ± 13.5 L/h
- terminal half-life ([9]; mean±SD): 2.5 ± 0.5 h
- Cmax ([9]; 40 mg/m^2): 1860 ± 660 nM
- Cmax ([9]; 56 mg/m^2): 3170 ± 1310 nM
